This experiment concerns the target human GSK3β (Homo sapiens, UniProt P49841). Kind of experiment: Screening for GSK3 inhibitory activity using a cell-free assay. As to conditions: read-out: IC50 with respect to GSK3. Type of experiment: biochemical. A digest of the protocol: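 Compounds in DMSO were tested against human GSK3β over a three-hour kinase reaction. Radiolabeled phosphate transferred to the peptide was captured on streptavidin plates after EDTA/ATP stop and quantified by scintillation counting. Signal was plotted versus compound concentration.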

The results in this text go back to patent US7425557B2, “Inhibitors of glycogen synthase kinase 3” (Novartis Vaccines and Diagnostics, Inc., priority 1998, dated 2008).

Structures are written as SMILES.

Chain of human GSK3β (P49841 whole entry): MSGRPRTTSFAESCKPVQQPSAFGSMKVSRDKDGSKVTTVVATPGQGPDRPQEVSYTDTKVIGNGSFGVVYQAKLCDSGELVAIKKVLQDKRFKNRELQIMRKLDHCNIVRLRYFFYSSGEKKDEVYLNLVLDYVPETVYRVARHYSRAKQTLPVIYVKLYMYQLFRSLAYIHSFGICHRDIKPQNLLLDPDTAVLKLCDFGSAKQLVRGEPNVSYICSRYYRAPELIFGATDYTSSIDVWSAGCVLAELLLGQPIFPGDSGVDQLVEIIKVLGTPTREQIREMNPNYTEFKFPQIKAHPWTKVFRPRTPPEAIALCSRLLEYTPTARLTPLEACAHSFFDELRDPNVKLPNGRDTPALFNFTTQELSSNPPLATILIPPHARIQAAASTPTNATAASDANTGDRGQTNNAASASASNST

By IC50 is commonly meant the concentration needed to halve the response being measured. Regarding `N#Cc1cnc(NCCNc2nccc(-c3ccc(C(N)=O)cc3)n2)nc1N` [4-[2-({2-[(4-amino-5-cyano-pyrimidin-2-yl)amino]ethyl}amino)pyrimidin-4-yl]benzamide], the IC50 is not above 1 µM.
The figure for `N#Cc1ccc(NCCNc2nccc(-c3ccc(C(N)=O)cc3)n2)nc1` [4-[2-({2-[(5-cyano-2-pyridyl)amino]-ethyl}amino)pyrimidin-4-yl]benzamide] is not above 1 µM; for `N#Cc1ccc(-c2nc(NCCNc3ccc([N+](=O)[O-])cn3)ncc2NCc2ccccc2)cc1` [4-[2-({2-[(5-nitro(2-pyridyl))amino]ethyl}amino)-5-[benzylamino]pyrimidin-4-yl]benzenecarbonitrile] it is not above 1 µM.
The figure for `O=[N+]([O-])c1ccc(NCCNc2ncc(-c3ccccc3)c(-c3ccc(O)cc3)n2)nc1` [4-[2-({2-[(5-nitro(2-pyridyl))amino]ethyl}amino)-5-phenylpyrimidin-4-yl]phenol] is not above 10 µM; for `O=[N+]([O-])c1ccc(NCCNc2nccc(-c3ccc(O)cc3)n2)nc1` [4-[2-({2-[(5-nitro-2-pyridyl)-amino]ethyl}amino)pyrimidin-4-yl]phenol] it is not above 10 µM; for `NC(=O)c1ccc(-c2ccnc(NCCNc3ccc([N+](=O)[O-])cn3)n2)cc1` [4-[2-({2-[(5-nitro-2-pyridyl)amino]ethyl}amino)-pyrimidin-4-yl]benzamide] it is not above 1 µM.
The result for `NS(=O)(=O)c1ccc(-c2ccnc(NCCNc3ccc([N+](=O)[O-])cn3)n2)cc1` [4-[2-({2-[(5-nitro-2-pyridyl)amino]ethyl}amino)pyrimidin-4-yl]benzenesulfonamide] reads not above 10 µM; that for `N#Cc1ccc(-c2nc(NCCNc3ccc([N+](=O)[O-])c(N)n3)ncc2-c2ncc[nH]2)cc1` [4-[2-({2-[(6-amino-5-nitro(2-pyridyl))amino]-ethyl}amino)-5-imidazol-2-ylpyrimidin-4-yl]benzenecarbonitrile], not above 1 µM.
With `COc1cccc(NCCNc2nccc(-c3ccc(C(N)=O)cc3)n2)n1` [4-[2-({2-[(6-methoxy-2-pyridyl)amino]ethyl}amino)pyrimidin-4-yl]benzamide], the IC50 is not above 1 µM.
As for `NC(=O)c1ccc(-c2ccnc(NCCCOc3cccc(C(F)(F)F)c3)n2)cc1` [4-[2-({3-[3-(trifluoromethyl)phenoxy]propyl}amino)pyrimidin-4-yl]benzamide], the IC50 is not above 1 µM.
For the molecule `NC(=O)c1ccc(-c2ccnc(NCCCNc3ccc([N+](=O)[O-])cn3)n2)cc1` [4-[2-({3-[(5-nitro-2-pyridyl)amino]propyl}amino)pyrimidin-4-yl]benzamide], the half-inhibitory concentration (IC50) is not above 1 µM.
The figure for `NC(=O)c1ccc(-c2ccnc(NCc3cc(C(F)(F)F)cc(C(F)(F)F)c3)n2)cc1` [4-[2-({[3,5-bis(trifluoromethyl)phenyl]methyl}amino)pyrimidin-4-yl]benzamide] is not above 10 µM; for `NC(=O)c1ccc(-c2ccnc(NCc3cccc(-c4cccc(N)c4)c3)n2)cc1` [4-[2-({[3-(3-aminophenyl)phenyl]methyl}amino)pyrimidin-4-yl]benzamide] it is not above 10 µM.
Consider `COc1cccc(-c2cccc(CNc3nccc(-c4ccc(C(N)=O)cc4)n3)c2)c1` [4-[2-({[3-(3-methoxyphenyl)phenyl]methyl}amino)pyrimidin-4-yl]benzamide], for which the IC50 is not above 10 µM.
The result for `NC(=O)c1ccc(-c2ccnc(NCc3cccc(C(F)(F)F)c3)n2)cc1` [4-[2-({[3-(trifluoromethyl)phenyl]methyl}amino)pyrimidin-4-yl]-benzamide] reads not above 10 µM; that for `NC(=O)c1ccc(-c2ccnc(NCc3ccc(-c4cccc(N)c4)cc3)n2)cc1` [4-[2-({[4-(3-aminophenyl)phenyl]methyl}amino)pyrimidin-4-yl]benzamide], not above 10 µM; that for `NC(=O)c1ccc(-c2ccnc(NCc3ccc(-c4ccc(F)cc4)cc3)n2)cc1` [4-[2-({[4-(4-fluorophenyl)phenyl]methyl}amino)pyrimidin-4-yl]benzamide], not above 10 µM.
The result for `NC(=O)c1ccc(-c2ccnc(NCc3ccc(C(F)(F)F)cc3)n2)cc1` [4-[2-({[4-(trifluoromethyl)phenyl]methyl}amino)pyrimidin-4-yl]benzamide] reads not above 10 µM; that for `Cc1noc(-c2cnc(NCCNc3ccc([N+](=O)[O-])cn3)nc2-c2ccc(C#N)cc2)n1` [4-[5-(3-methyl(1,2,4-oxadiazol-5-yl))-2-({2-[(5-nitro(2-pyridyl))amino]-ethyl}amino)pyrimidin-4-yl]benzenecarbonitrile], not above 1 µM.
The figure for `CS(=O)(=O)c1cnc(NCCNc2ccc([N+](=O)[O-])cn2)nc1-c1ccc(C#N)cc1` [4-[5-(methylsulfonyl)-2-({2-[(5-nitro(2-pyridyl))amino]ethyl}amino)pyrimidin-4-yl]benzenecarbonitrile] is not above 1 µM; for `N#Cc1ccc(-c2nc(NCCNc3ccc([N+](=O)[O-])cn3)ncc2C(=O)N2CCOCC2)cc1` [4-[5-(morpholin-4-ylcarbonyl)-2-({2-[(5-nitro(2-pyridyl))amino]ethyl}-amino)pyrimidin-4-yl]benzenecarbonitrile] it is not above 1 µM; for `N#Cc1ccc(-c2nc(NCCNc3ccc([N+](=O)[O-])cn3)ncc2-c2ncc[nH]2)cc1` [4-[5-imidazol-2-yl-2-({2-[(5-nitro(2-pyridyl))amino]ethyl}amino)pyrimidin-4-yl]benzenecarbonitrile] it is not above 1 µM.
In the case of `N#Cc1ccc(-c2nc(NCCNc3ccc([N+](=O)[O-])cn3)ncc2[N+](=O)[O-])cc1` [4-[5-nitro-2-({2-[(5-nitro(2-pyridyl))amino]ethyl}amino)pyrimidin-4-yl]benzenecarbonitrile], the IC50 was not above 10 µM.
For `CN(C)CCc1noc(-c2cnc(NCCNc3ccc([N+](=O)[O-])cn3)nc2-c2ccc(C#N)cc2)n1` [4-[5-{3-[2-(dimethylamino)ethyl](1,2,4-oxadiazol-5-yl)}-2-({2-[(5-nitro(2-pyridyl))amino]-ethyl}amino)pyrimidin-4-yl]benzenecarbonitrile], the IC50 was not above 1 µM.
Take `O=C(O)c1c(-c2ccc([N+](=O)[O-])cc2)nc(NCCNc2ccc([N+](=O)[O-])cn2)nc1C1CCCCC1` [4-cyclohexyl-2-({2-[(5-nitro(2-pyridyl))amino]ethyl}amino)-6-(4-nitrophenyl)pyrimidine-5-carboxylic acid]: the IC50 is not above 10 µM.
The figure for `Cc1nc(NCCNc2ccc([N+](=O)[O-])cn2)ncc1C(=O)O` [4-methyl-2-({2-[(5-nitro(2-pyridyl))amino]ethyl}amino)pyrimidine-5-carboxylic acid] is not above 10 µM; for `NC(=O)c1ccc(-c2ccnc(NCC(c3ccccc3)c3ccccc3)n2)cc1` [4-{2-[(2,2-diphenylethyl)amino]pyrimidin-4-yl}-benzamide] it is not above 10 µM; for `N#Cc1ccc(-c2ccnc(NCCc3ccccn3)n2)cc1` [4-{2-[(2-(2-pyridyl)ethyl)-amino]pyrimidin-4-yl}benzenecarbonitrile] it is not above 10 µM.
Take `NC(=O)c1ccc(-c2ccnc(NCCc3ccccn3)n2)cc1` [4-{2-[(2-(2-pyridyl)ethyl)amino]pyrimidin-4-yl}benzamide]: the IC50 is not above 1 µM.
The figure for `NC(=O)c1ccc(-c2ccnc(NCCOc3ccccc3)n2)cc1` [4-{2-[(2-phenoxyethyl)amino]pyrimidin-4-yl}benzamide] is not above 10 µM; for `CC(CNc1nccc(-c2ccc(C(N)=O)cc2)n1)c1ccccc1` (stereo not drawn) [4-{2-[(2-phenylpropyl)amino]pyrimidin-4-yl}benzamide] it is not above 1 µM; for `NC(=O)c1ccc(-c2ccnc(NCCNc3ccc(C(N)=S)cn3)n2)cc1` [4-{2-[(2-{[5-(aminothioxomethyl)-2-pyridyl]amino}ethyl)amino]pyrimidin-4-yl}benzamide] it is not above 1 µM.
The result for `NC(=O)c1ccc(-c2ccnc(NCCNc3ccc(C(F)(F)F)cn3)n2)cc1` [4-{2-[(2-{[5-(trifluoromethyl)-2-pyridyl]amino}-ethyl)amino]pyrimidin-4-yl}benzamide] reads not above 1 µM; that for `NC(=O)c1ccc(-c2ccnc(NCCCOc3ccc4ccccc4c3)n2)cc1` [4-{2-[(3-(2-naphthyloxy)propyl)amino]pyrimidin-4-yl}benzamide], not above 10 µM; that for `NC(=O)c1ccc(-c2ccnc(NCCCOc3ccc4ncccc4c3)n2)cc1` [4-{2-[(3-(6-quinolyloxy)propyl)-amino]pyrimidin-4-yl}benzamide], not above 10 µM.
The figure for `NC(=O)c1ccc(-c2ccnc(NCCCOc3ccccc3)n2)cc1` [4-{2-[(3-phenoxypropyl)amino]pyrimidin-4-yl}benzamide] is not above 10 µM; for `NC(=O)c1ccc(-c2ccnc(NCCCCc3ccccc3)n2)cc1` [4-{2-[(4-phenylbutyl)amino]-pyrimidin-4-yl}benzamide] it is not above 10 µM.
Take `NC(=O)c1ccc(-c2ccnc(NCc3ccncc3)n2)cc1` [4-{2-[(4-pyridylmethyl)amino]pyrimidin-4-yl}benzamide]: the IC50 was not above 10 µM.
On to `CC(=O)Nc1cccc(-c2cccc(CNc3nccc(-c4ccc(C(N)=O)cc4)n3)c2)c1` [4-{2-[({3-[3-(acetylamino)phenyl]phenyl}methyl)amino]pyrimidin-4-yl}benzamide], for which the IC50 is not above 10 µM.
The figure for `NC(=O)c1ccc(-c2ccnc(NCc3cccc(-c4cccc(C(F)(F)F)c4)c3)n2)cc1` [4-{2-[({3-[3-(trifluoromethyl)phenyl]phenyl}methyl)amino]pyrimidin-4-yl}benzamide] is not above 10 µM.
The figure for `O=C(O)c1c(-c2ccccc2)nc(NCCNc2ccc([N+](=O)[O-])cn2)nc1-c1ccccc1F` [6-(2-fluorophenyl)-2-({2-[(5-nitro(2-pyridyl))amino]ethyl}amino)-4-phenyl-pyrimidine-5-carboxylic acid] is not above 10 µM; for `CCc1ccc(-c2nc(N(C)CCNc3ccc(C#N)cn3)ccc2N2CCN(C)CC2=O)cc1` [6-({2-[[6-(4-ethylphenyl)-5-(4-methyl-2-oxo-1-piperazinyl)-2-pyridinyl](methyl)amino]ethyl}amino)nicotinonitrile] it is not above 10 µM.
